For 25 compounds, EC50 results are on record in patent publication US11464783B2, “Heterocyclic compounds” (Aligos Therapeutics, Inc., priority 2019, dated 2022).

The test system of the first assay is HBV. The assay can be described thus: HBV-DNA Antiviral Assay Using HepG2.117 Cells. The following applies: Hepatitis B virus, HepG2.117, 96 h, intracellular HBV DNA by qPCR, day 4. Type of assay: cell-based. As for the experimental part:
The following assay procedure describes the HBV antiviral assay, using HepG2.117 cells, which carry a stably integrated genotype D HBV genome under the control of a Tet-off promoter, and intracellular HBV DNA quantification as endpoint. Cell viability is assessed in parallel by measuring the intracellular ATP content using ATPlite (Perkin Elmer).
On day 0, HepG2.117 cells (which are maintained in routine cell culture with doxycycline present in the medium at a final concentration of 1 μg/mL) were seeded in 96-well plates (white with clear bottom) at a density of 2.0×10^4 cells/well (0.1 mL/well) in medium without doxycycline to induce pgRNA transcription and subsequent formation of HBV particles. The cells were incubated at 37° C. and 5% CO2.
On day 1, medium was removed from each well, the test articles were diluted in culture medium without doxcycyline and 100 μL was added to cell culture wells (9 concentrations, 4-fold dilution). For each plate, 6 untreated (merely DMSO) wells were included. The final concentration of DMSO in the culture medium was 2%. Each plate was prepared in duplicate (one for HBV DNA extraction, one for ATPlite measurement). The cells were incubated at 37° C. and 5% CO2 for 3 days.
On day 4, cell viability was assessed using ATPlite and cell lysates were prepared for HBV DNA extraction and subsequent quantification by qPCR.
Medium was removed from each well and 100 μL of 0.33% NP-40 in H2O was added to each well. Plates were sealed, incubated at 4° C. for 5 mins, vortexed extensively and centrifuged briefly. Next, 35 μL of lysate was added to 65 μL QuickExtract DNA Extraction Solution (Epicentre) in a PCR plate for each well. PCR plate was incubated at 65° C. for 6 mins, 98° C. for 2 mins and finally cooled to 4° C. HBV DNA was then quantified by qPCR with HBV-specific primers and probes as specified in Table 2 using the Bio-Rad SSOAdvanced Universal Probes Supermix on a CFX96 machine (Bio-Rad). The PCR cycle program consisted of 95° C. for 3 mins, followed by 40 cycles at 95° C. for 10 sec and 60° C. for 30 sec.
A DNA standard was prepared by dilution of an IDT gBlock corresponding to the amplicon with concentrations ranging from 10^2 to 10^8 copies/input (i.e. per 4 μL) and used to generate a standard curve by plotting Cq values vs. HBV DNA standard concentration. The quantity of HBV DNA in each sample was determined by interpolating from the standard curve.
Cell viability was calculated as follows: % Cell viability=(luminescence value of test sample)/(average luminescence value of 2% DMSO control)×100%. HBV DNA inhibition was calculated as follows: 100−(HBV DNA copy number of test sample)/(average HBV DNA copy number of 2% DMSO control)×100%. No normalization to entecavir was required due to the excellent dynamic window of this assay. The CC50, EC so and EC90 values were determined by dose-response curves fitted by GraphPad Prism using “log (agonist) vs. response—Variable slope”.
On the technique in general: Real-time PCR tracks product formation cycle by cycle.
For the compound `CC(C)NC(=O)C1CN(C(=O)c2ccc(Br)c(Cl)c2)CCS1(=O)=O` (stereo not shown) [Compound 1, 4-(4-bromo-3-chlorobenzoyl)-N-isopropylthiomorpholine-2-carboxamide 1,1-dioxide], the concentration giving a half-maximal response (EC50) fell in the range of 500 to 5000 nM. As to `O=C(Nc1ccccc1)C1CN(C(=O)c2ccc(Br)c(Cl)c2)CCS1(=O)=O` (stereo not shown) [Compound 2, 4-(4-bromo-3-chlorobenzoyl)-N-phenylthiomorpholine-2-carboxamide 1,1-dioxide], the concentration for a half-maximal effect (EC50) lay in the range of 500 to 5000 nM. Still for that read-out and setting: the result for `O=C(NCc1ccccc1)C1CN(C(=O)c2ccc(Br)c(Cl)c2)CCS1(=O)=O` (stereo not shown) [Compound 3, N-benzyl-4-(4-bromo-3-chlorobenzoyl)thiomorpholine-2-carboxamide 1,1-dioxide] reads 100 to 500 nM; that for `O=C(NCCc1ccccc1)C1CN(C(=O)c2ccc(Br)c(Cl)c2)CCS1(=O)=O` (stereo not shown) [Compound 4, 4-(4-bromo-3-chlorobenzoyl)-N-phenethylthiomorpholine-2-carboxamide 1,1-dioxide], 500 to 5000 nM. `O=C(c1ccc(Cl)cc1F)N1CCS(=O)(=O)C(c2cccs2)C1` (stereo not shown) [Compound 10b, (4-chloro-2-fluoro-phenyl)-[1,1-dioxo-2-(2-thienyl)-1,4-thiazinan-4-yl]methanone] displayed an EC50 of 500 to 5000 nM.

Staying with this assay, now noted: intracellular HBV DNA by qPCR, day 4.
On to `CC1(c2ncc(Cc3ccccc3)s2)CN(C(=O)c2ccc(Br)c(Cl)c2)CCS1(=O)=O` (racemic) [Compound 36a, (4-bromo-3-chloro-phenyl)-[rac-(2S)-2-(5-benzylthiazol-2-yl)-2-methyl-1,1-dioxo-1,4-thiazinan-4-yl]methanone], for which the half-maximal effective concentration (EC50) was 500 to 5000 nM.

Regarding `CC1(c2ncc(Cc3ccccc3)s2)CN(C(=O)c2ccc(Br)c(Cl)c2)CCS1(=O)=O` (racemic) [Compound 36b, (4-bromo-3-chloro-phenyl)-[rac-(2R)-2-(5-benzylthiazol-2-yl)-2-methyl-1,1-dioxo-1,4-thiazinan-4-yl]methanone], the EC50 lay in the range of 100 to 500 nM. For `C[C@@H](c1cnc([C@@]2(F)CN(C(=O)c3ccc(Br)c(Cl)c3)CCS2(=O)=O)s1)c1ccccc1F` (racemic) [Compound 42a, (rac-2R)-4-(4-bromo-3-chlorobenzoyl)-2-fluoro-2-[5-[(rac-1R)-1-(2-fluorophenyl)ethyl]-1,3-thiazol-2-yl]-1λ^6-thiomorpholine-1,1-dione], the EC50 was no more than 100 nM. Still for that read-out and setting: the result for `C[C@H](c1cnc(C2(F)CN(C(=O)c3ccc(Br)c(Cl)c3)CCS2(=O)=O)s1)c1ccccc1F` (mixture of isomers) [Compound 42b, (rac-2R)-4-(4-bromo-3-chlorobenzoyl)-2-fluoro-2-[5-[(rac-1S)-1-(2-fluorophenyl)ethyl]-1,3-thiazol-2-yl]-1λ^6-thiomorpholine-1,1-dione] reads no more than 100 nM. On the same count and under the same terms, with `C[C@@H](c1cnc(C2(F)CN(C(=O)c3ccc(Br)c(Cl)c3)CCS2(=O)=O)s1)c1ccccc1F` (mixture of isomers) [Compound 42c, (rac-2S)-4-(4-bromo-3-chlorobenzoyl)-2-fluoro-2-[5-[(rac-1R)-1-(2-fluorophenyl)ethyl]-1,3-thiazol-2-yl]-1λ^6-thiomorpholine-1,1-dione] the figure was greater than 5000 nM; with `C[C@H](c1cnc(C2(F)CN(C(=O)c3ccc(Br)c(Cl)c3)CCS2(=O)=O)s1)c1ccccc1F` (mixture of isomers) [Compound 42d, (rac-2S)-4-(4-bromo-3-chlorobenzoyl)-2-fluoro-2-[5-[(rac-1S)-1-(2-fluorophenyl)ethyl]-1,3-thiazol-2-yl]-1λ^6-thiomorpholine-1,1-dione], 500 to 5000 nM. Still for that read-out and setting: with `O=C(c1ccc(Br)c(Cl)c1)N1CCS(=O)(=O)C(F)(c2ncc(Cc3ccccc3-c3ncccn3)s2)C1` (racemic) [Compound 44a, (rac-2R)-4-(4-bromo-3-chlorobenzoyl)-2-fluoro-2-(5-[[2-(pyrimidin-2-yl)phenyl]methyl]-1,3-thiazol-2-yl)-1λ^6-thiomorpholine-1,1-dione] the figure was no more than 100 nM. Compound `O=C(c1ccc(Br)c(Cl)c1)N1CCS(=O)(=O)C(F)(c2ncc(Cc3ccccc3-c3ncccn3)s2)C1` (racemic) [Compound 44b, (rac-2S)-4-(4-bromo-3-chlorobenzoyl)-2-fluoro-2-(5-[[2-(pyrimidin-2-yl)phenyl]methyl]-1,3-thiazol-2-yl)-1λ^6-thiomorpholine-1,1-dione] displayed a 50% effective concentration (EC50) of 500 to 5000 nM.

For the compound `O=C(c1ccc(Cl)c(F)c1)N1CCS(=O)(=O)C(c2cccs2)C1` (single isomer, unassigned) [Compound 7a, (4-chloro-3-fluoro-phenyl)-[1,1-dioxo-2-(2-thienyl)-1,4-thiazinan-4-yl]methanone], the EC50 fell in the range of 100 to 500 nM. On to `O=C(c1ccc(Cl)c(F)c1)N1CCS(=O)(=O)C(c2cccs2)C1` (single isomer, unassigned) [Compound 7b, (4-chloro-3-fluoro-phenyl)-[1,1-dioxo-2-(2-thienyl)-1,4-thiazinan-4-yl]methanone], for which the 50% effective concentration (EC50) is 500 to 5000 nM. Same read-out and setting: with `Cc1cc(Cl)ccc1C(=O)N1CCS(=O)(=O)C(c2cccs2)C1` (single isomer, unassigned) [Compound 12a, (4-chloro-2-methyl-phenyl)-[1,1-dioxo-2-(2-thienyl)-1,4-thiazinan-4-yl]methanone] the figure was greater than 5000 nM; with `Cc1cc(Cl)ccc1C(=O)N1CCS(=O)(=O)C(c2cccs2)C1` (single isomer, unassigned) [Compound 12b, (4-chloro-2-methyl-phenyl)-[1,1-dioxo-2-(2-thienyl)-1,4-thiazinan-4-yl]methanone], 500 to 5000 nM; with `O=C(Nc1ccc(F)c(Cl)c1)N1CCS(=O)(=O)C(c2ccccc2)C1` (single isomer, unassigned) [Compound 18a, N-(3-chloro-4-fluoro-phenyl)-1, l-dioxo-2-phenyl-1,4-thiazinane-4-carboxamide], 500 to 5000 nM. Still for that read-out and setting: the result for `O=C(Nc1ccc(F)c(Cl)c1)N1CCS(=O)(=O)C(c2ccccc2)C1` (single isomer, unassigned) [Compound 18b, N-(3-chloro-4-fluoro-phenyl)-1, l-dioxo-2-phenyl-1,4-thiazinane-4-carboxamide] reads greater than 5000 nM; that for `O=C(c1ccc(Br)c(Cl)c1)N1CCS(=O)(=O)C(c2ccccc2)C1` (single isomer, unassigned) [Compound 19a, (4-bromo-3-chloro-phenyl)-(1,1-dioxo-2-phenyl-1,4-thiazinan-4-yl)methanone], 100 to 500 nM; that for `O=C(c1ccc(Br)c(Cl)c1)N1CCS(=O)(=O)C(c2ccccc2)C1` (single isomer, unassigned) [Compound 19b, (4-bromo-3-chloro-phenyl)-(1,1-dioxo-2-phenyl-1,4-thiazinan-4-yl)methanone], 500 to 5000 nM. Same read-out and setting: the result for `C[C@@H]1CS(=O)(=O)[C@](F)(c2ncc(Cc3ccccc3)s2)CN1C(=O)c1ccc(Br)c(Cl)c1` (stereo in doubt) [Compound 47a, (4-bromo-3-chloro-phenyl)-[(rac-2S,5R)-2-(5-benzylthiazol-2-yl)-2-fluoro-5-methyl-1,1-dioxo-1,4-thiazinan-4-yl]methanone] reads greater than 5000 nM; that for `C[C@@H]1CS(=O)(=O)[C@@](F)(c2ncc(Cc3ccccc3)s2)CN1C(=O)c1ccc(Br)c(Cl)c1` (stereo in doubt) [Compound 47b, (4-bromo-3-chloro-phenyl)-[(rac-2R,5R)-2-(5-benzylthiazol-2-yl)-2-fluoro-5-methyl-1,1-dioxo-1,4-thiazinan-4-yl]methanone], no more than 100 nM; that for `C[C@H]1CS(=O)(=O)[C@](F)(c2ncc(Cc3ccccc3)s2)CN1C(=O)c1ccc(Br)c(Cl)c1` (stereo in doubt) [Compound 48a, (4-bromo-3-chloro-phenyl)-[(rac-2S,5S)-2-(5-benzylthiazol-2-yl)-2-fluoro-5-methyl-1,1-dioxo-1,4-thiazinan-4-yl]methanone], 100 to 500 nM. On to `C[C@H]1CS(=O)(=O)[C@@](F)(c2ncc(Cc3ccccc3)s2)CN1C(=O)c1ccc(Br)c(Cl)c1` (stereo in doubt) [Compound 48b, (4-bromo-3-chloro-phenyl)-[(rac-2R,5S)-2-(5-benzylthiazol-2-yl)-2-fluoro-5-methyl-1,1-dioxo-1,4-thiazinan-4-yl]methanone], for which the EC50 is 100 to 500 nM.

The EC50 is the concentration needed to bring the measured effect to its halfway point. A higher EC50 goes with lower potency in that assay.
